From PMC12693167, “Design, Synthesis and Anticancer Activity of 6-Substituted-1-(3,4,5-trimethoxyphenyl)-1H-indole Against Tubulin Polymerisation” (Molecules, 2025) come the findings set out here.

Assay [1] concerns B16F10 melanoma tumors in BALB/c mice. The assay can be described thus: In vivo antitumor efficacy, subcutaneous B16-F10 melanoma model. Also noted: species or system mouse. Conditions: 14 days, from tumor weight. Here is the method:
The in vivo antitumor activity of compound 3g was evaluated using a mouse melanoma tumor model in BALB/c mice. Tumors were established by subcutaneous inoculation of B16F10 cells, and treatment was initiated when tumors reached a measurable size. Mice were administered vehicle control, paclitaxel (PTX, 10 mg/kg), or compound 3g (20 and 50 mg/kg) via intraperitoneal injection once daily for 14 consecutive days.
All animal procedures were approved by the Animal Ethics Committee of the Naval Medical University (permit number: EC11-055). Male BALB/c mice (6–8 weeks old, average initial body weight approximately 18–20 g) were purchased from Shanghai SLAC Laboratory Animal Co., Ltd. The inhibitory effect of compound 3g was evaluated using a subcutaneous B16-F10 melanoma xenograft model. Log-phase B16F10 cells were suspended in PBS and subcutaneously injected into mice (200 μL containing 8 × 10^5 cells per mouse) to establish tumors. Mice were randomly divided into control and treatment groups (n = 8). Compound 3g and paclitaxel were dissolved in a vehicle consisting of DMSO:PEG:Tween-80:saline (v/v/v/v, 5:35:10:50) to the desired concentrations. Treatments (paclitaxel, 10 mg/kg; compound 3g, 20 and 50 mg/kg, doses calculated on a body-weight basis) and vehicle were administered once daily via intraperitoneal injection for 14 consecutive days. Body weights were monitored throughout the study to assess acute toxicity. Tumor volumes were measured using calipers and calculated with the formula: a × b^2 × 0.5, where a and b represent the larger and smaller tumor diameters, respectively. On day 14, mice were sacrificed and tumors were excised and weighed. […] Major organs (liver and kidneys) were collected, fixed in 4% paraformaldehyde, processed into paraffin sections, stained with hematoxylin and eosin (H&E), and examined microscopically.
Murine melanoma B16-F10 xenograft tumors were established in mice, which were then administered vehicle, PTX (10 mg/kg per day), compound 3g (20 mg/kg per day), and compound 3g (50 mg/kg per day) for 14 days. […]

Assay [2] concerns the target T1, purified porcine brain tubulin (Sus scrofa, UniProt P02554).
T1 construct: purified porcine brain tubulin; from tissue; host or cells: porcine brain
Nature of the assay: Biolayer interferometry (BLI) binding to tubulin. Conditions: immobilized tubulin, 1:1 binding model, mean ± SD, triplicate. How it is done: To detect the direct interaction between the synthesized compounds and tubulin, biolayer interferometry (BLI) experiments were performed using purified porcine brain tubulin immobilized on Super Streptavidin (SSA) biosensor [30]. […] Association and dissociation kinetics were monitored in real time, and equilibrium dissociation constants (KD) were determined by global fitting of the sensorgrams to a 1:1 binding model. All measurements were conducted in triplicate, and results are reported as mean ± SD.
BLI assays were performed on an Octet RED96 instrument (FortéBio, Pall Life Sciences, Menlo Park, CA, USA) at 25 °C in PBS buffer supplemented with 0.02% (v/v) Tween-20 as the running buffer. Biotinylated tubulin proteins (3 μg/mL) were immobilized onto Super Streptavidin (SSA) biosensors. Association and dissociation were monitored for 60 s each. […] Reference subtraction was performed using sensors incubated in running buffer without protein loading to correct for baseline drift. Data were analyzed using Octet Data Analysis software (version 9.0), and equilibrium dissociation constants (KD) were determined by fitting the curves to a 1:1 binding model. All measurements were performed in triplicate, and results are reported as mean ± SD.
BLI assays were performed on an Octet RED96 instrument (FortéBio, Pall Life Sciences) at 25 °C in PBS buffer supplemented with 0.02% (v/v) Tween-20 as the running buffer. Biotinylated tubulin proteins (3 μg/mL) were immobilized onto Super Streptavidin (SSA) biosensors. Association and dissociation were monitored for 60 s […]
Reference subtraction was performed using sensors incubated in running buffer without protein loading to correct for baseline drift. Data were analyzed using Octet Data Analysis software (version 9.0), and equilibrium dissociation constants (KD) were determined by fitting the curves to a 1:1 binding model. All measurements were performed in triplicate, and results are reported as mean ± SD.

Values joined by “and” are separate entries in the source; they are usually repeats but may differ in a detail not shown here. Equal entries are not always repeated.

T1 sequence (P02554 whole entry): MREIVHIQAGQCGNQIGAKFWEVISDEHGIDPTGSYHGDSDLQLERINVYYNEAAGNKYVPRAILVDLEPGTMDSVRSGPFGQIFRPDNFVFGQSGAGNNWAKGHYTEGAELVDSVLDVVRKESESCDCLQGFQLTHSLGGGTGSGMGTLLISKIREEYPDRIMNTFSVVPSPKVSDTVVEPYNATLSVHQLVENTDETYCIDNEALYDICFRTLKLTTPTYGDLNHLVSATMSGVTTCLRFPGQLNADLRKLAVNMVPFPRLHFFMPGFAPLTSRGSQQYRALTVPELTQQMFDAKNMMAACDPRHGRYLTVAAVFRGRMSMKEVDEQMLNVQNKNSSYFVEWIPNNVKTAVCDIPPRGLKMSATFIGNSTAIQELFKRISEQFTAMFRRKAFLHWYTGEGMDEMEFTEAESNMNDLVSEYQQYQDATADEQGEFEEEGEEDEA
T1 sequence (P02550 whole entry partner): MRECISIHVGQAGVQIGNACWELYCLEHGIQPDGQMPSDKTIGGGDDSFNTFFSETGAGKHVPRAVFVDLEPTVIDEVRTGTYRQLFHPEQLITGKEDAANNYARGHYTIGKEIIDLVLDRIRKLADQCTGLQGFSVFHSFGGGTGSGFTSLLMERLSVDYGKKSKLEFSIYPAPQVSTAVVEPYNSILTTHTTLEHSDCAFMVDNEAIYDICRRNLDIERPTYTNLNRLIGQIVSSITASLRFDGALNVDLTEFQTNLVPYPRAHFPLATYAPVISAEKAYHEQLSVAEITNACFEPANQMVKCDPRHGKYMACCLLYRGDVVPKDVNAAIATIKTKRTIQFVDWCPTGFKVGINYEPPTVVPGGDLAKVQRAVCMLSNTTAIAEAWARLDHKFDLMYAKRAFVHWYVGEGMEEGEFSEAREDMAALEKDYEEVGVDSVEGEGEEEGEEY

For the molecule `COc1cc(-n2ccc3ccc(-c4ccc(C)c(C#N)c4)cc32)cc(OC)c1OC` [3g, 2-methyl-5-(1-(3,4,5-trimethoxyphenyl)-1H-indol-6-yl)benzonitrile], the “tumor growth inhibition (TGI)” value in assay [1] (20 mg/kg i.p. once daily) was 23.3% and 23.34%; in assay [1] (50 mg/kg i.p. once daily) it was 44.2% and 44.18%. Moreover, in assay [2], the KD entry is listed as “low micromolar range”. Moreover, the Kd (commonly the free concentration of one partner at which half of the binding sites on the other are occupied at equilibrium, for simple one-to-one binding) in assay [2] turned out to be 13 ± 1.17 µM.
